Laboratory results reported in publication PMC2746040 (Synapse (New York, N.Y.), 2009).
Where “and” joins values, the source holds several entries; their conditions need not be identical. Identical values can stand only once. Like-named read-outs stand apart in the source and are kept apart here.

Assays:
D2L DAR [1] = target: T1, D2L DAR (Rattus norvegicus, UniProt P61169); format: cell-based; settings: for % Maximum inhibition: 3 μM forskolin-stimulated cAMP accumulation, 10 min 37°C, HEK293T
D2L DAR [2] = target: T1, D2L DAR; format: binding
D2L DAR [3] = target: T1, D2L DAR; format: binding; settings: intact cells; for hill coefficient: [3H]sulpiride competition
D3 DAR [4] = target: T2, D3 DAR (Rattus norvegicus, UniProt P19020); format: cell-based
T2 sequence (P19020 whole entry): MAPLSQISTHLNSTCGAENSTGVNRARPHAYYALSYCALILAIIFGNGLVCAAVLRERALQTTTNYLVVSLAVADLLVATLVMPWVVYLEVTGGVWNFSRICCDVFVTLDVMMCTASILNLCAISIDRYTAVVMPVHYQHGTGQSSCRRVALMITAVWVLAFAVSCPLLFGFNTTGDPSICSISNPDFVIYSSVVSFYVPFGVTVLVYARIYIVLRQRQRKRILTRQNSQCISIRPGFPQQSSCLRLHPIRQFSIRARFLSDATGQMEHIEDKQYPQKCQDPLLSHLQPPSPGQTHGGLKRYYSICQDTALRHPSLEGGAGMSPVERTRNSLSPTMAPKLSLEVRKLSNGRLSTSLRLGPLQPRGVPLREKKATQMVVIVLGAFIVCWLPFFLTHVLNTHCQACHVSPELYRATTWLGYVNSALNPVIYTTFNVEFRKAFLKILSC

D3 DAR [5] = target: T2, D3 DAR; format: binding; settings: read-out: KiL
D2L DAR [6] = target: T1, D2L DAR; format: binding; settings: for % decrease of Bmax: by Gpp(NH)p 100 μM
D2L DAR [7] = target: T1, D2L DAR; format: cell-based; settings: 50 nM MNPA or 10 μM dopamine
D2L-YFP = assay: Agonist-induced receptor internalization assessed via confocal microscopy; format: cell-based; settings: 15 min, room temperature, 50 nM MNPA or 10 μM dopamine

T1 sequence (P61169 whole entry): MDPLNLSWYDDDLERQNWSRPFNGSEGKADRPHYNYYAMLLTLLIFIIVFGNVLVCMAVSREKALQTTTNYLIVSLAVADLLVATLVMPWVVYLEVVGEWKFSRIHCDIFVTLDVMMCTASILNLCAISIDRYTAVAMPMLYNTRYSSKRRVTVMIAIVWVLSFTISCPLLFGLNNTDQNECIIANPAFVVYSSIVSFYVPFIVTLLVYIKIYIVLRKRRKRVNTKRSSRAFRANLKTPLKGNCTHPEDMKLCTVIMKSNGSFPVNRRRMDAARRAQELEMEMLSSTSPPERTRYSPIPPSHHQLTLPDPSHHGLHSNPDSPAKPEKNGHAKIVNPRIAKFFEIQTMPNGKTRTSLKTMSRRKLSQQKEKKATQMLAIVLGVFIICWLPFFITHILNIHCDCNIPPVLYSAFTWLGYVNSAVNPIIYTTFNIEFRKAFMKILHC

## CCCN1CCc2cc(OC)cc3c2[C@H]1Cc1ccc(O)c(O)c1-3 [MNPA, (R)-2-^11CH3O-N-n-propylnorapomorphine]
D2L DAR [1]; inhibition of forskolin-stimulated cAMP accumulation, no antagonist
  IC50: 0.33 ± 0.26 nM
D2L DAR [2]; read-out: KiH, high affinity state, absence of GTP, [3H]methylspiperone ~0.2 nM
  Ki: 0.09 ± 0.02 nM
D2L DAR [2]; read-out: KiL, + GTP 100 μM, single site
  Ki: 13.7 ± 3.3 nM
D2L DAR [2]; read-out: KiL, low affinity state, absence of GTP
  Ki: 16.9 ± 3.2 nM
D2L DAR [3]; [3H]sulpiride ~2 nM, 1 hour 37°C, single site
  Ki: 109 ± 52 nM
D3 DAR [4]; 3 μM forskolin, D3 DAR + AC-V, no antagonist
  IC50: 3.43 nM
D3 DAR [4]; read-out: EC50 value for inhibiting D3 DAR activity
  EC50: 3.4 nM
D3 DAR [5]; + GTP 100 μM (dopamine: one-site fit)
  Ki: 1.09 ± 1.7 nM
D3 DAR [5]; absence of GTP (dopamine: one-site fit)
  Ki: 1.02 ± 0.2 nM

## CCCN1CCc2cccc3c2[C@H]1Cc1ccc(O)c(O)c1-3 [NPA, N-n-propylnorapomorphine, reference compound]
D2L DAR [1]
  % Maximum inhibition: 72 ± 8%
D2L DAR [2]; absence of GTP
  % RH (percentage of receptors configured in the GTP sensitive high-affinity state): 24 ± 1%
D2L DAR [3]
  hill coefficient: 1.5 ± 0.2
D2L DAR [6]
  % decrease of Bmax: 17 ± 5%
D2L DAR [6]; listed as [^3H]NPA
  % decrease of Bmax: 17-21%

## CCCN1CCc2cc(O[11CH3])cc3c2[C@H]1Cc1ccc(O)c(O)c1-3 [MNPA, (R)-2-^11CH3O-N-n-propylnorapomorphine]
D2L DAR [1]
  % Maximum inhibition: 82 ± 3%
D2L DAR [1]; cAMP accumulation
  agonist character at the D2L DAR: potent and full agonist
D2L DAR [2]
  fold lower Ki values than dopamine: 200-1000 fold
D2L DAR [2]; absence of GTP
  % RH (percentage of receptors configured in the GTP sensitive high-affinity state): 24 ± 1%
D2L DAR [3]
  hill coefficient: 1.7 ± 0.2
D2L DAR [6]; Gpp(NH)p 100 μM
  fold increase of Kd by Gpp(NH)p: ~2 fold
D2L DAR [6]
  % decrease of Bmax: 21 ± 9%
D2L DAR [6]; listed as [^3H]MNPA
  % decrease of Bmax: 17-21%
D2L DAR [7]; Arrestin2 co-transfection
  % decrease of Bmax: 53 ± 2%
  Bmax of [3H]sulpiride after agonist pretreatment: 3.00 ± 0.33 fmol/10^5cells
D2L DAR [7]; Arrestin3 co-transfection
  % decrease of Bmax: 68 ± 8%
  Bmax of [3H]sulpiride after agonist pretreatment: 2.75 ± 0.27 fmol/10^5cells
D2L DAR [7]; pcDNA transfection
  % decrease of Bmax: 23% and 23 ± 7%
  Bmax of [3H]sulpiride after agonist pretreatment: 7.25 ± 0.53 fmol/10^5cells
D3 DAR [4]
  fold higher EC50 at D3 DAR compared to D2 DAR: ~10 fold
D3 DAR [4]; 10 μM (+)butaclamol
  fold reduction in potency by (+)-butaclamol: 100 fold
D3 DAR [4]; cAMP accumulation
  agonist character at the D3 DAR: full agonist
  potency relative to dopamine at the D3 DAR: slightly less potent than dopamine
D3 DAR [4]; maximal extent
  inhibition of forskolin stimulated cAMP accumulation: 42-43%
D2L-YFP
  internalization of the D2-YFP receptor (confocal images): promotes internalization of the D2-YFP receptor

## NCCc1ccc(O)c(O)c1 [Dopamine, dopamine, reference compound]
D2L-YFP
  internalization of the D2-YFP receptor (confocal images): some of the D2-YFP fluorescence is apparent in punctuated, vesicle-like structures in the cytosol

## CN1CN(c2ccccc2)C2(CCN(CCCC(=O)c3ccc(F)cc3)CC2)C1=O [MSP, methylspiperone, reference compound]
D2L DAR [6]; Gpp(NH)p 100 μM
  effect of Gpp(NH)p on binding: no effect
